Results on 4 cell lines are retold here after the supplement of paper PMC10307832.

What all share (assay): relative viability (nuclei count vs DMSO), 5 days (fraction); higher = more cells survive
Compound in the experiment “Carfilzomib + Foretinib”: CC(C)C[C@H](NC(=O)[C@H](CCc1ccccc1)NC(=O)CN1CCOCC1)C(=O)N[C@@H](Cc1ccccc1)C(=O)N[C@@H](CC(C)C)C(=O)[C@@]1(C)CO1 [Carfilzomib] + COc1cc2c(Oc3ccc(NC(=O)C4(C(=O)Nc5ccc(F)cc5)CC4)cc3F)ccnc2cc1OCCCN1CCOCC1 [Foretinib] (partner 0.25 µM)
In a few lines: (§1)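 Nuclei were stained with Hoechst during a one-step fixation (final 0.05% Triton X-100, 1% formaldehyde, 1 ug/ml Hoechst) carried out 5 days after dosing, then counted on 4× images. The cells, lung cancer lines in 1536-well plates, had been dosed by pin tool the day after seeding with one drug alone or a fixed anchor-drug dose plus five library-drug doses (not always all listed) in √10 steps. Relative viability is the nuclei count in treated wells divided by that in vehicle wells, and each value is the median of duplicate plates.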

Compound in the experiment “Crizotinib + Trametinib”: C[C@@H](Oc1cc(-c2cnn(C3CCNCC3)c2)cnc1N)c1c(Cl)ccc(F)c1Cl [Crizotinib] + CC(=O)Nc1cccc(-n2c(=O)n(C3CC3)c(=O)c3c(Nc4ccc(I)cc4F)n(C)c(=O)c(C)c32)c1 [Trametinib] (partner 0.02 µM)
In a few lines: as §1

Compound in the experiment “Crizotinib + Luminespib”: C[C@@H](Oc1cc(-c2cnn(C3CCNCC3)c2)cnc1N)c1c(Cl)ccc(F)c1Cl [Crizotinib] + CCNC(=O)c1noc(-c2cc(C(C)C)c(O)cc2O)c1-c1ccc(CN2CCOCC2)cc1 [Luminespib] (partner 0.01 µM)
In a few lines: as §1

Compound in the experiment “Crizotinib + AZD7762”: C[C@@H](Oc1cc(-c2cnn(C3CCNCC3)c2)cnc1N)c1c(Cl)ccc(F)c1Cl [Crizotinib] + NC(=O)Nc1cc(-c2cccc(F)c2)sc1C(=O)N[C@H]1CCCNC1 [AZD7762] (partner 0.2 µM)
In outline: as §1

For PC-3 [JPC-3], the relative viability is 1.02 in the experiment with Carfilzomib + Foretinib (first compound 0.001 µM); 1.01 with Carfilzomib + Foretinib (first compound 0.003162 µM); 1.05 in the experiment with Carfilzomib + Foretinib (first compound 0.01 µM); 0.889 with Carfilzomib + Foretinib (first compound 0.03162 µM); 0.279 with Carfilzomib + Foretinib (first compound 0.1 µM); 0.634 with Crizotinib + Trametinib (first compound 0.01 µM). Further, the relative viability with Crizotinib + Trametinib (first compound 0.03162 µM) was 0.721; with Crizotinib + Trametinib (first compound 0.1 µM), 0.759; with Crizotinib + Trametinib (first compound 1 µM), 0.651; in the experiment with Crizotinib + Luminespib (first compound 0.01 µM), 0.727; in the experiment with Crizotinib + Luminespib (first compound 0.03162 µM), 0.649; with Crizotinib + Luminespib (first compound 0.1 µM), 0.741. Further, the relative viability with Crizotinib + Luminespib (first compound 0.3162 µM) turned out to be 0.678; in the experiment with Crizotinib + Luminespib (first compound 1 µM), 0.78; with Crizotinib + AZD7762 (first compound 0.01 µM), 0.687; with Crizotinib + AZD7762 (first compound 0.1 µM), 0.907; in the experiment with Crizotinib + AZD7762 (first compound 1 µM), 0.772.
With PC-14, the relative viability with Carfilzomib + Foretinib (first compound 0.001 µM) came out at 0.979; with Carfilzomib + Foretinib (first compound 0.003162 µM), 0.958; with Carfilzomib + Foretinib (first compound 0.01 µM) it was 0.996; with Carfilzomib + Foretinib (first compound 0.03162 µM), 0.826; with Carfilzomib + Foretinib (first compound 0.1 µM), 0.081; in the experiment with Crizotinib + Trametinib (first compound 0.01 µM), 0.842. Besides, the relative viability amounted to 0.742 with Crizotinib + Trametinib (first compound 0.03162 µM); 0.78 with Crizotinib + Trametinib (first compound 0.1 µM); 0.699 with Crizotinib + Trametinib (first compound 0.3162 µM); 0.756 with Crizotinib + Trametinib (first compound 1 µM); 0.156 in the experiment with Crizotinib + Luminespib (first compound 0.01 µM); 0.152 in the experiment with Crizotinib + Luminespib (first compound 0.03162 µM). The relative viability was found to be 0.183 with Crizotinib + Luminespib (first compound 0.1 µM); 0.186 with Crizotinib + Luminespib (first compound 0.3162 µM); 0.168 in the experiment with Crizotinib + Luminespib (first compound 1 µM); 0.342 with Crizotinib + AZD7762 (first compound 0.01 µM); 0.392 in the experiment with Crizotinib + AZD7762 (first compound 0.03162 µM); 0.401 in the experiment with Crizotinib + AZD7762 (first compound 0.1 µM). For the same cell line, the relative viability with Crizotinib + AZD7762 (first compound 0.3162 µM) was found to be 0.355; with Crizotinib + AZD7762 (first compound 1 µM), 0.382.
Regarding RERF-LC-KJ, the relative viability with Carfilzomib + Foretinib (first compound 0.001 µM) is 0.873; with Carfilzomib + Foretinib (first compound 0.003162 µM), 0.86; with Carfilzomib + Foretinib (first compound 0.01 µM), 0.886; with Carfilzomib + Foretinib (first compound 0.03162 µM), 0.794; with Carfilzomib + Foretinib (first compound 0.1 µM) it was 0.409; with Crizotinib + Trametinib (first compound 0.01 µM), 0.955. For the same cell line, the relative viability with Crizotinib + Trametinib (first compound 0.03162 µM) worked out at 0.885; in the experiment with Crizotinib + Trametinib (first compound 0.1 µM) it was 0.831; with Crizotinib + Trametinib (first compound 0.3162 µM) it was 0.827; in the experiment with Crizotinib + Trametinib (first compound 1 µM), 0.905; in the experiment with Crizotinib + Luminespib (first compound 0.01 µM) it was 1.22; with Crizotinib + Luminespib (first compound 0.03162 µM), 1.31. Moreover, the relative viability was determined as 1.29 with Crizotinib + Luminespib (first compound 0.1 µM); 1.21 in the experiment with Crizotinib + Luminespib (first compound 0.3162 µM); 1.21 with Crizotinib + Luminespib (first compound 1 µM); 1.02 with Crizotinib + AZD7762 (first compound 0.01 µM); 0.956 with Crizotinib + AZD7762 (first compound 0.03162 µM); 0.956 with Crizotinib + AZD7762 (first compound 0.1 µM). The relative viability in the experiment with Crizotinib + AZD7762 (first compound 0.3162 µM) is 0.946; in the experiment with Crizotinib + AZD7762 (first compound 1 µM), 0.994.
With SW 900, the relative viability in the experiment with Carfilzomib + Foretinib (first compound 0.001 µM) was determined as 1.01; in the experiment with Carfilzomib + Foretinib (first compound 0.003162 µM), 0.999; with Carfilzomib + Foretinib (first compound 0.01 µM), 0.315; with Carfilzomib + Foretinib (first compound 0.03162 µM), 0.0988; with Carfilzomib + Foretinib (first compound 0.1 µM) it was 0.116; with Crizotinib + Trametinib (first compound 0.01 µM), 0.907. The relative viability in the experiment with Crizotinib + Trametinib (first compound 0.03162 µM) came out at 0.9; in the experiment with Crizotinib + Trametinib (first compound 0.1 µM), 0.752; with Crizotinib + Trametinib (first compound 0.3162 µM), 0.938; in the experiment with Crizotinib + Trametinib (first compound 1 µM) it was 0.614; with Crizotinib + Luminespib (first compound 0.01 µM), 0.172; with Crizotinib + Luminespib (first compound 0.03162 µM) it was 0.164. For the same cell line, the relative viability came to 0.19 with Crizotinib + Luminespib (first compound 0.1 µM); 0.194 in the experiment with Crizotinib + Luminespib (first compound 0.3162 µM); 0.175 with Crizotinib + Luminespib (first compound 1 µM); 0.54 with Crizotinib + AZD7762 (first compound 0.01 µM); 0.627 with Crizotinib + AZD7762 (first compound 0.03162 µM); 0.616 with Crizotinib + AZD7762 (first compound 0.1 µM). In addition, the relative viability with Crizotinib + AZD7762 (first compound 0.3162 µM) turned out to be 0.663; with Crizotinib + AZD7762 (first compound 1 µM), 0.617.
